# Experimental data reported in patent publication US7811760B2, “Vector and method for detecting the change in transcription amount” (priority 2006, dated 2010).
# How the values were obtained:
# [1] = target: T1, aryl hydrocarbon receptor (Rattus norvegicus, UniProt P41738, Q794H); experiment: Reporter gene assay in Neuro2a with pSV40E100/Luc and pTHE100/Luc (SEQ ID No: 3); assay type: cell-based, SD-line rat; details: 10 nM TCDD; pTHE100/Luc compared with pSV40E100/Luc
# T1 construct: The SD-line rat AhR gene-coding region was amplified from the reverse-transcribed sample by means of PCR; V5-His (C-terminal tag of vector pcDNA4/V5-His B); expressed in transfected cells; host or cells: mouse neuroblastoma Neuro2a, transient transfection with LIPOFECTAMINE 2000
# T1 sequence (P41738 10-853 Q794H): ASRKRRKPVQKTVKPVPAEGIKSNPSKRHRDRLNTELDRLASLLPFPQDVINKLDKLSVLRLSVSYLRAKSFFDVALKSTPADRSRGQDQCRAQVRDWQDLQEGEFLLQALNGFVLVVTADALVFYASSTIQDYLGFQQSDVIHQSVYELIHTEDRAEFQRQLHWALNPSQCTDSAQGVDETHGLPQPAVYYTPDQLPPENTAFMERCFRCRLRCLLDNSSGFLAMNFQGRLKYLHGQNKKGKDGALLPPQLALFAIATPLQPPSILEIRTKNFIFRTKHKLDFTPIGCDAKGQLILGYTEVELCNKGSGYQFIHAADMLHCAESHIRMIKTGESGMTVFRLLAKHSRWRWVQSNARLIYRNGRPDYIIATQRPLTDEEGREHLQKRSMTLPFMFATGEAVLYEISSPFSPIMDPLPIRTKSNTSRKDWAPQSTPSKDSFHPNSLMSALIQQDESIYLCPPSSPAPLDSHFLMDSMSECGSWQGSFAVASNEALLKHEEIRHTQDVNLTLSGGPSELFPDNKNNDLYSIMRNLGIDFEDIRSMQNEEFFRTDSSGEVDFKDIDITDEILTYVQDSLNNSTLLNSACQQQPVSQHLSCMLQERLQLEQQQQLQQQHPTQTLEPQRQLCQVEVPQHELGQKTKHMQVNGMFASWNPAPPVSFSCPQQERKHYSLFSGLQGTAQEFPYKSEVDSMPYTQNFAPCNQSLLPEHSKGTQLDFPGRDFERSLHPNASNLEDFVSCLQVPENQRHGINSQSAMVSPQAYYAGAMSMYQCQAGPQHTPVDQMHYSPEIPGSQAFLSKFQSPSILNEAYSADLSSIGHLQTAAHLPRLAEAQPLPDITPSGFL
# Method: The TH transcriptional regulatory region of SEQ ID No: 3 (−300 to −200 bp) was used in Example 6. The TH transcriptional regulatory region ranging from −300 to −200 position was prepared by PCR using the 500-bp size of TH transcriptional regulatory region as a template. The following primers were used.
# Recognition sequences for restriction enzymes KpnI (for forward primer) and NheI (for reverse primer) were added to the terminal of the respective primers, for the purpose of facilitating incorporation of the PCR amplified fragment into the vector. The region of SEQ ID No: 3 was amplified by using Pyrobest DNA polymerase. The amplified DNA fragment was digested with restriction enzymes KpnI and NheI, and subjected to electrophoresis on agarose. The corresponding band was purified with a QIAQUICK Gel Extraction Kit, and incorporated into PGV-P2 vector previously digested with KpnI and NheI, to obtain a recombinant vector pSV40E100/Luc. The vector PGV-P2 used contains an SV40 early promoter as its promoter region.
# In addition, the region of SEQ ID No: 5 (mouse TH gene core promoter region) was amplified by PCR using a forward primer: 5′-[…]-3′ (SEQ ID No: 27) and a reverse primer: 5′-[…]-3′ (SEQ ID No: 28), and using a region of approximately 500 by upstream of the TH gene as the template. […]
# SD-line rat AhR = target: T2, SD-line rat AhR (Rattus norvegicus, UniProt P41738, Q794H); experiment: Reporter gene assay in Neuro2a with pTHE100×3/Luc and pcDNA4-rAhR; assay type: cell-based; details: 1 to 10,000 pM TCDD
# T2 construct: The SD-line rat AhR gene-coding region was amplified from the reverse-transcribed sample by means of PCR; V5-His (C-terminal tag of vector pcDNA4/V5-His B); expressed in transfected cells; host or cells: mouse neuroblastoma Neuro2a, transient transfection with LIPOFECTAMINE 2000
# T2 sequence (P41738 10-853 Q794H): T1 sequence (P41738 10-853 Q794H)
# Source text: In Example 8, the vector pTHE100×3/Luc (Example 7, FIG. 7A) was used as the vector containing a reporter gene, and Neuro2a was used as the cell.
# In this Example, a combination of pcDNA4-rAhR (Example 1) containing the SD-line rat AhR gene and pcDNA4/V5-His/lacZ (Invitrogen), as well as a combination of PGV-mAhR (Example 1) containing the C57/BL6-line mouse AhR gene and pcDNA4/V5-His/lacZ were used as the vectors for introducing into the cell together with pTHE100×3/Luc. pcDNA4-rAhR was introduced into the cell for constitutive expression of the SD-line rat AhR (SEQ ID No: 10); PGV-mAhR was introduced into the cell for constitutive expression of C57/BL6-line mouse AhR (SEQ ID No: 11); and pcDNA4/V5-His/lacZ was introduced into the cell for normalization of the transfection efficiency of the vector.
# The vectors were introduced into the cell by using LIPOFECTAMINE 2000, similarly to the method described in Example 3. After the above vectors were introduced into the cell, the obtained cell was exposed to 1 to 10,000 pM of TCDD to examine the increase in expression amount of the reporter gene in response to TCDD.
smiles,measurement,setting,value
"Clc1cc2c(cc1Cl)Oc1cc(Cl)c(Cl)cc1O2 [TCDD, 2,3,7,8-tetrachlorodibenzo-p-dioxine]","activity in response to test substance, TH gene core promoter versus SV40 early promoter",[1],higher activity in response to a test substance
same,"transcriptional response, rat AhR compared with mouse AhR",SD-line rat AhR,transcriptional response greater than that of the C57/BL6-line mouse AhR
same,induction of transcription of the reporter gene in response to TCDD,SD-line rat AhR; SD-line rat AhR,effective in inducing transcription of the reporter gene
